Laboratory results published in article PMC7385413 (Frontiers in Neuroscience, 2020).
Several values for one entry are separate records, joined by “and”; a condition that tells them apart may be missing. Equal entries are not always repeated. Where two headings read alike, the source gives them in different places.

Key:
C57Bl/6J mice [1] = system: C57Bl/6J mice
C57Bl/6J mice [2] = system: C57Bl/6J mice; remark: listed apart in the source
B6-SJL mice [3] = experiment: Cumulative dose-response warm water tail-withdrawal assay; type: in vivo; conditions: cumulative s.c. doses; for ED50: Mus musculus, sc, 0.5 h, 50°C, latency 30 min post-injection
Procedure: (§1) On the 2 days prior to the test day, mice were restrained in transparent plastic tube restrainers (internal diameter 24 mm) for 5 min daily, to reduce restraint stress. Tail-withdrawal latencies were measured by immersing one-third of the distal portion of the tail in a warm water bath (50 ± 0.5°C) and the time to show the withdrawal response recorded. A maximum tail immersion cut-off of 10 s was used to avoid tissue damage and allow for repeated exposure to the thermal stimulus. On the day of the experiment, the baseline latency for each animal was measured by averaging three predrug tail-withdrawal latencies, with successive measurements taken at least 5 min apart. Following the experimental procedure, the percentage maximum possible effect (%MPE) was calculated for each animal at each time point by using the following formula:
(§2) %MPE=(testlatency-baselinelatency/10-baselinelatency)× 100
The cumulative dose-response effects were evaluated using a within animal design, as previously described ([Bohn et al., 2000]; [Paton et al., 2017]; [Sherwood et al., 2017]). Briefly, mice were given s.c. injections at increasing concentrations to create cumulative doses in a volume of 5 μL/g of weight into the scruff of the neck, the left flank and the right flank in sequence to avoid continuous injections into the same area. At 30 min post-injection, the tail-withdrawal latency was measured and the next cumulative dose administered immediately after. […] Non-linear regression analysis was used to determine potency [median effective dose (ED50)] and efficacy calculated by normalizing data to the prototype KOPr agonist U50,488 [maximum dose achieved (Emax)].

rats [4] = system: rats; design: method as in Riley et al., 2014; conditions: ref Riley et al., 2014; cited from earlier work
B6-SJL mice [5] = type: in vivo
hKOPr [6] = experiment: Bias factor, G-protein (cAMP) vs β-arrestin2, U50,488 as reference ligand; conditions: for Signaling bias in words: bias calculation relative to U50,488; for Bias factor: relative to U50,488, 1 balanced, >1 G-protein biased, <1 β-arrestin2 biased
Sprague–Dawley rats = system: Sprague–Dawley rats; design: method as in Riley et al., 2014; Mathew, 2019; conditions: 16-Bromo SalA 1 mg/kg; 16-Ethynyl SalA 0.3–2 mg/kg; ref Riley et al., 2014; Mathew, 2019; cited from earlier work
B6-SJL mice [7] = experiment: Warm water tail-withdrawal assay, time course (duration of action); type: in vivo; conditions: 50°C, vs vehicle
Procedure: as §1, §2
To measure the duration of action, the tail-withdrawal latencies were measured over a time-course as previously described ([Simonson et al., 2015]; [Paton et al., 2017]). Following the baseline latency measurements, mice were given an i.p. injection of either KOPr agonist or vehicle and the latency to tail-withdrawal behavior determined at 5, 10, 15, 30, 45, 60, 90, and 120 min for each animal in a repeated measures design.

hKOPr [8] = biological target: T1, hKOPr (Homo sapiens, UniProt P41145); experiment: Inhibition of forskolin-induced cAMP accumulation (HitHunter) in CHO cells expressing hKOPr; type: cell-based; design: host or cells: CHO
B6-SJL mice [9] = experiment: Intraplantar 2% formaldehyde model, i.p. treatment; type: in vivo; conditions: for Time of significant reduction of pain-related behavioral score: vs vehicle/formaldehyde; for Area under the curve, phase I and phase II pain-related behavior: phase I 0–15 min, phase II 20–60 min
Procedure: The Intraplantar 2% formaldehyde model was carried out as previously described ([Paton et al., 2017]; [Sherwood et al., 2017]). The custom-made chamber (27.5 × 18.5 cm) sat on a glass surface with a 45° angle mirror underneath to capture the behaviors via a video camera. The mice were habituated to the test enclosure for 15 min before testing. The mice were given KOPr agonist or vehicle treatment via i.p. injection 5 min prior to the administration of 20 μL of formaldehyde (2% in PBS) or PBS alone via intraplantar (i.pl.) injection. The animals were recorded for 60 min. The methods of [Dubuisson and Dennis (1977)] were used to assess the pain-like behavior using a weight-bearing score. […] Scores were assessed every 5 s and averaged for every 5 min time period. For the area under the curve analysis, the two phases were separated out as follows: 0–15 min phase one nociceptive pain-related behavior; and 20–60 min phase two inflammatory pain-related behavior.

B6-SJL mice [10] = system: B6-SJL mice
hKOPr [11] = conditions: read-out: EC50 [35S]GTP-γ-S; cited from earlier work
B6-SJL mice [12] = type: in vivo; remark: listed apart in the source
hKOPr [13] = biological target: T1, hKOPr; design: host or cells: CHO; conditions: cited from earlier work
hKOPr [14] = biological target: T1, hKOPr; experiment: β-arrestin2 recruitment (PathHunter) in U2OS cells expressing β-arrestin2 and hKOPr; type: cell-based; design: host or cells: U2OS
B6-SJL mice [15] = conditions: ref White et al. (2015), cited from earlier work
rats [16] = conditions: ref Ewald et al., 2017; cited from earlier work
B6-SJL mice [17] = system: B6-SJL mice; design: method as in McCurdy et al. (2006); conditions: 2–4 mg/kg, 52°C, male Swiss mice; ref McCurdy et al. (2006); cited from earlier work
male NIH Swiss mice = conditions: mouse, in vivo; cited from earlier work
B6-SJL mice [18] = conditions: cited from earlier work
[19] = SalA 2 mg/kg i.p., analogs 1–2 mg/kg i.p.

SMILES | Marbles buried vs vehicle (C57Bl/6J mice [1]; mouse, in vivo) | Number of head dips vs vehicle (C57Bl/6J mice [2]; mouse, in vivo) | Open arm entries vs vehicle (C57Bl/6J mice [2]; mouse, in vivo) | Time in open area vs vehicle (C57Bl/6J mice [2]; mouse, in vivo) | ED50 (B6-SJL mice [3]) | Drug-seeking in cocaine prime-induced reinstatement (rats [4]) | Duration of action, hot-plate (B6-SJL mice [5]; mouse, in vivo) | Signaling bias in words (hKOPr [6]) | Bias factor (hKOPr [6]) | Effect on spontaneous locomotor activity (Sprague–Dawley rats) | Time of significant antinociceptive effect, tail-withdrawal (B6-SJL mice [7]; 1 mg/kg i.p.) | Inhibition of forskolin-induced cAMP accumulation Emax ± SEM (hKOPr [8]) | Time of significant reduction of pain-related behavioral score (B6-SJL mice [9]; 1 mg/kg i.p.) | Area under the curve, phase I and phase II pain-related behavior (B6-SJL mice [9]; 1 mg/kg i.p.) | Area under the curve, phase I and phase II pain-related behavior (B6-SJL mice [9]; 2 mg/kg i.p.) | EC50 (hKOPr [11]) | also measured
COC(=O)[C@@H]1C[C@H](OC(C)=O)C(=O)[C@H]2[C@@]1(C)CC[C@H]1C(=O)O[C@H](c3ccoc3Br)C[C@]21C [16-Bromo SalA, 16-Bromo Salvinorin A] | did not alter the number of marbles buried | did not have any effect | did not have any effect | did not have any effect | 2.06 mg/kg | attenuated drug-seeking | […] | G-protein biased | 7.7 G | did not have an effect | […] | 98.8 ± 1.84 | […] | did not show a significant reduction | did not show a significant reduction | […] | Time of significant reduction of pain-related behavioral score (B6-SJL mice [9]; 2 mg/kg i.p.): […]; Time of sedative effects (decreased latency to fall) (B6-SJL mice [10]; B6-SJL, mouse, in vivo): […]
C#Cc1occc1[C@@H]1C[C@]2(C)[C@H]3C(=O)[C@@H](OC(C)=O)C[C@@H](C(=O)OC)[C@]3(C)CC[C@H]2C(=O)O1 [16-Ethynyl SalA, 16-Ethynyl Salvinorin A] | did not alter the number of marbles buried | reduced | reduced | reduced | 1.54 mg/kg | attenuated drug-seeking | 30 min | balanced agonist | 1.0 | did not have an effect | 10 to 15 min | 101 ± 1.79 | 25 to 35 min | not 1 mg/kg | reduced the pain-related behavioral scores | – | Emax tail-withdrawal (B6-SJL mice [3]; normalized to U50,488): 171.0 ± 21.5%; Antinociceptive effect compared at the 30 min time point, hot-plate (B6-SJL mice [5]; mouse, in vivo): greater antinociceptive effect than both SalA and 16-Bromo SalA; Area under the curve, phase I and II pain-related behavior (B6-SJL mice [12]; mouse, in vivo): reduced both phases of pain-related behavior; Fold increase in potency at KOPr compared to 16-Bromo SalA (hKOPr [13]): 2 fold; Time of significant antinociceptive effect, tail-withdrawal (B6-SJL mice [7]; 2 mg/kg i.p.): 5 to 60 min; EC50 (hKOPr [8]; HitHunter, CHO-hKOPr): 0.011 nM; Effect of nor-BNI pre-treatment on the AUC reduction (B6-SJL mice [9]; 2 mg/kg i.p., nor-BNI s.c. 24 h prior): nor-BNI significantly reversed the effect; EC50 (hKOPr [14]): 7.35 nM; Time of decreased latency to fall (B6-SJL mice [10]; B6-SJL, mouse, in vivo): 15 and 30
COC(=O)[C@@H]1C[C@H](OC(=O)CSC#N)C(=O)[C@H]2[C@@]1(C)CC[C@H]1C(=O)O[C@H](c3ccoc3)C[C@]21C [RB-64] | – | – | – | – | – | – | – | – | – | – | – | – | – | – | – | – | Motor deficits, rotarod (B6-SJL mice [15]; C57BL/6J mice): did not cause any motor deficits
COC(=O)[C@@H]1C[C@H](OC(C)=O)C(=O)[C@H]2[C@@]1(C)CC[C@H]1C(=O)O[C@H](c3ccoc3)C[C@]21C [SalA, Salvinorin A, reference compound] | – | – | – | – | – | – | – | – | – | – | – | – | – | – | – | 2.1 ± 0.6 nM | Anxiogenic effects in the elevated plus maze (rats [16]): has anxiogenic effects; Marbles buried vs vehicle (C57Bl/6J mice [1]; SalA 2 mg/kg i.p., analogs 1–2 mg/kg i.p., 30 min): increase in the percentage of marble buried; Number of head dips vs vehicle (C57Bl/6J mice [2]; [19]): reduced; Open arm entries vs vehicle (C57Bl/6J mice [2]; [19]): reduced; Time in open area vs vehicle (C57Bl/6J mice [2]; SalA 2 mg/kg i.p., analogs 1–2 mg/kg i.p., 10 min after injection, 5 min test): reduced; Duration of motor incoordination, rotarod (B6-SJL mice [15]; 3 and 10 mg/kg, female and male C57BL/6J mice): up to 30 min; Duration of action, hot-plate (B6-SJL mice [17]): 10 min; Duration of action, hot-plate (B6-SJL mice [5]; 2 mg/kg i.p., 50°C hot-plate): 30 min; Area under the curve, phase I and II pain-related behavior (B6-SJL mice [12]; 2 mg/kg i.pl.): reduced both phases of pain-related behavior; Duration of disrupted climbing behavior (male NIH Swiss mice): 5 min; Duration of action, tail-withdrawal (B6-SJL mice [18]; 2–4 mg/kg, male Swiss mice, ref McCurdy et al. (2006)): 20 min; Duration of antinociceptive action, tail-withdrawal (B6-SJL mice [18]; authors' model, ref Paton et al., 2017): 30 min; Time of significant motor incoordination (decreased latency to fall) (B6-SJL mice [10]; 2 mg/kg i.p., accelerating rotarod 4 to 40 rpm): 15 to 30 min
